The results in this text go back to US7514438B2, “Melanin concentrating hormone receptor antagonist” (Amgen, Inc., priority 2003, dated 2009).

Each structure is given as a SMILES string. Read-outs that look alike come from different tables or passages of the source. Some results are limits rather than exact numbers.

Assay [1] concerns the target T1, rat MCH 1 receptor (rMCH1R) (Rattus norvegicus, UniProt P97639).
T1 construct: expressed in transfected cells; host or cells: HEK 293 (membranes)
Nature of the assay: 125I-MCH ligand binding assay, rMCH. Particulars: HEK 293 membranes, 0.2 nM 125I native-MCH, read-out: IC50 in the rMCH binding assay. Put shortly:
(§1)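 HEK293 membranes expressing rat or human MCH1R (100 µg tissue) were incubated for 90 min at 30 °C with 0.2 nM 125I-native-MCH and test compound in HEPES/MgCl2/BSA buffer with protease inhibitors, pH 7.4. Non-specific binding used 1 µM cold MCH. Filter-bound radioactivity gave IC50 by nonlinear regression.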

Assay [2] deals with T2, human MCH 1 receptor (hMCH1R) (Homo sapiens, UniProt Q99705).
T2 construct: expressed in transfected cells; host or cells: HEK 293 (membranes)
T2 sequence (Q99705 whole entry): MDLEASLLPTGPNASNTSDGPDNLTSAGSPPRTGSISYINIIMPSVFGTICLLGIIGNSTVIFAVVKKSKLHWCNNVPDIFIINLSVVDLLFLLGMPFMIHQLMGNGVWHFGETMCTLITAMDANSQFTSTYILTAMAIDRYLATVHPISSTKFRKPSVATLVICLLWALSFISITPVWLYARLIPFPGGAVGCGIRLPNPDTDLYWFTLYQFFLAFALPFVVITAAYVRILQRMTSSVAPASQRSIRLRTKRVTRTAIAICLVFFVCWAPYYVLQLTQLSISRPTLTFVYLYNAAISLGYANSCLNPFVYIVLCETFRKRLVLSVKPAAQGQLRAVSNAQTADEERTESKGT
Nature of the assay: 125I-MCH ligand binding assay, hMCH. The note with it: HEK 293 membranes, 0.2 nM 125I native-MCH, read-out: IC50 in the hMCH binding assay. Put shortly:
as §1

The target of assay [3] is rat MCH1 receptor (Rattus norvegicus, UniProt P97639). Put plainly: rMCH FLIPR calcium mobilization assay (CHOK1-Gqi cells). In kind it is cell-based. Particulars: CHOK1-Gqi cells, rat MCH1 receptor; 100 μM or less list; read-out: Ki in the rMCH FLIPR assay. Set-up: expressed in transfected cells; host or cells: CHOK1-Gqi. The protocol:
Pharmacological analyses were conducted using either a HT-PS100 device (Axiom Biotechnologies, San Diego, Calif.), which provides high-resolution dose-response fluorometric measurements of [Ca^++]i mobilization, or using a FLIPR® device (Molecular Devices, Sunnyvale, Calif.).
Materials: Pharmacological analysis was conducted using a FLIPR® device (Molecular Devices, Sunnyvale, Calif.). CHOK1-Gqi cells were stably transfected with the rat MCH1 receptor and maintained under G418 antibiotic pressure. FLIPR® assay buffer consisted of phenol red-free DMEM+2.5 mM probenecid. […]. Test compounds were prepared as 10 mM stocks in 100% DMSO and diluted to a top end working concentration of 10 μM in 96 well black, flat bottom, collagen-I coated plates (Becton Dickinson, Bedford, Mass.).
Methods: CHOK1-Gqi cells stably expressing MCH1R were maintained in Dulbeco's modified Eagle's medium (GIBCO/Life Technologies, Rockville, Md.) supplemented with 2 mM glutamine and 10% dialyzed fetal bovine serum (HyCLone, Logan, Utah) at 37° C., 5% CO2. Cells were harvested by 10′ treatment with Versene (GIBCO/Life Technologies) followed by trituration, washing twice with cold (4° C.) hybridoma medium (Serum/Protein free, with L-glutamine, sodium bicarbonate, MOPS buffer) (Sigma-Aldrich Corp, St. Louis, Mo.) and replated onto 96 well black, flat bottom, collagen-I coated plates to a density of 10,000 cells/well. The cells were then loaded with the fluorescent calcium indicator Fura-2 (Molecular Probes, Eugene, Oreg.) at 1.6 μM for 60′ at room temperature. The loaded cells were then washed twice with 90 μl/well of wash buffer (1×HBSS, 20 mM HEPES, 2.5 mM probenecid).
Receptor-stimulated intracellular calcium responses were detected using FLIPR® by monitoring increases in the Fura-2 fluorescence response.
Test compounds were screened for MCH1R activity in the FLIPR® for both agonist and antagonist action. Agonist mode challenges were conducted at a maximum gradient concentration of 1 μM. Antagonist activity was tested by 10 min pre-incubation of cells at a compound concentration of defined to be 300× the EC50 of MCH (typically 1 μM), with subsequent introduction of MCH at a concentration 5-fold of EC50 as determined in preliminary experiments. […].
Several fixed concentrations of antagonist compounds were prepared in 10-fold increments, and presented to the cells in a gradient of increasing MCH concentration. Values for compound pA2 were calculated by linear regression of MCH EC50s as a function of antagonist concentration.

In assay [4] the target is T3, human MCH receptor (Homo sapiens, UniProt Q99705).
T3 construct: expressed in transfected cells
T3 sequence (Q99705 whole entry): as above
Put plainly: hMCH FLIPR calcium mobilization assay. In kind it is cell-based. The note with it: 100 μM or less list; read-out: Ki in the hMCH FLIPR assay.

T1 sequence (P97639 whole entry): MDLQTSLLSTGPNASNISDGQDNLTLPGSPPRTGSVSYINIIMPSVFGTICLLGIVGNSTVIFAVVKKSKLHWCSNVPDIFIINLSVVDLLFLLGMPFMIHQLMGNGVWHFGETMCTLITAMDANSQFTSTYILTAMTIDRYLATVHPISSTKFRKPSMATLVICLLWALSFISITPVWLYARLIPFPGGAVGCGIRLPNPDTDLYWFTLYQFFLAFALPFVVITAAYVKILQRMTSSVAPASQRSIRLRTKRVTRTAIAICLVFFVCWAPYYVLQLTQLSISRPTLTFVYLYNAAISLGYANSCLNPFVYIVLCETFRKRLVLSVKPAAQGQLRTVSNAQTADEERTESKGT
Chain of rat MCH1 receptor (P97639 whole entry): as above

Regarding `Cc1cccc(C)c1-n1nnnc1[C@H](c1cccc(C(F)(F)F)c1)N1CCN(C/C=C/c2ccccc2O)CC1` (racemic) [Compound 151, 2-(3-{4-[[1-(2,6-dimethylphenyl)-1H-tetrazol-5-yl]-(3-trifluoromethylphenyl)methyl]piperazin-1-yl}propenyl)phenol], the IC50 in assay [1] (100 μM or less list) and in assay [2] (100 μM or less list) was at most 100 µM throughout. The inhibitory constant (Ki) in assay [3] and in assay [4] was at most 100 µM throughout.
`COc1ccc(/C=C/CN2CCN([C@@H](c3cccc(C(F)(F)F)c3)c3nnnn3-c3c(C)cccc3C)CC2)cc1` (racemic) [Compound 147, 1-[[1-(2,6-dimethylphenyl)-1H-tetrazol-5-yl]-(3-trifluoromethylphenyl)methyl]-4-[3-(4-methoxyphenyl)allyl]piperazine]: the IC50 in assay [1] (100 μM or less list) and in assay [2] (100 μM or less list) was at most 100 µM in each case. Also, the Ki in assay [3] and in assay [4] was at most 100 µM in each case.
With `Cc1cccc(C)c1-n1nnnc1[C@H](c1cccc(C(F)(F)F)c1)N1CCN(Cc2cc3ccccc3n2C)CC1` (racemic) [Compound 148, 2-{4-[[1-(2,6-dimethylphenyl)-1H-tetrazol-5-yl]-(3-trifluoromethylphenyl)methyl]piperazin-1-ylmethyl}-1-methyl-1H-indole], the IC50 in assay [1] (100 μM or less list) and in assay [2] (100 μM or less list) was at most 100 µM throughout. In addition, the Ki in assay [3] and in assay [4] was at most 100 µM in each case.
Take `Cc1cccc(C)c1-n1nnnc1[C@H](c1cccc(C(F)(F)F)c1)N1CCN(CC=C(c2ccccc2)c2ccccc2)CC1` (racemic) [Compound 144, 1-[[1-(2,6-dimethylphenyl)-1H-tetrazol-5-yl]-(3-trifluoromethylphenyl)methyl]-4-(3,3-diphenylallyl)piperazine]: the IC50 in assay [1] (100 nM or less list) was at most 0.1 µM; in assay [1] (100 μM or less list) it was at most 100 µM; in assay [2] (100 nM or less list), at most 0.1 µM; in assay [2] (100 μM or less list), at most 100 µM. Moreover, the inhibitory constant (Ki) in assay [3] and in assay [4] was at most 100 µM in each case.
Take `Cc1cccc(C)c1-n1nnnc1[C@H](c1cccc(C#N)c1)N1CCN(C/C=C/c2ccccc2)CC1` (stereo in doubt) [Compound 133, 3-{[1-(2,6-dimethylphenyl)-1H-tetrazol-5-yl]-[4-(3-phenylallyl)piperazin-1-yl]methyl}benzonitrile]: the IC50 in assay [1] (100 μM or less list) and in assay [2] (100 μM or less list) was at most 100 µM in each case. Also, the Ki in assay [3] and in assay [4] was at most 100 µM throughout.
In the case of `Cc1cccc(C)c1-n1nnnc1[C@H](c1cccc(-c2ccccc2)c1)N1CCN(C/C=C/c2ccccc2)CC1` (racemic) [Compound 143, 1-{biphenyl-3-yl-[1-(2,6-dimethylphenyl)-1H-tetrazol-5-yl]methyl}-4-(3-phenylallyl)piperazine], the IC50 in assay [1] (100 μM or less list) and in assay [2] (100 μM or less list) was at most 100 µM throughout. Besides, the Ki in assay [3] and in assay [4] was at most 100 µM throughout.
Turning to `Cc1cccc(C)c1-n1nnnc1[C@H](c1cccc(C(F)(F)F)c1)N1CCN(Cc2c[nH]c3ccccc23)CC1` (racemic) [Compound 150, 3-{4-[[1-(2,6-dimethylphenyl)-1H-tetrazol-5-yl]-(3-trifluoromethylphenyl)methyl]piperazin-1-ylmethyl}-1H-indole], the IC50 in assay [1] (100 μM or less list) and in assay [2] (100 μM or less list) was at most 100 µM throughout. For the same compound, the Ki in assay [3] and in assay [4] was at most 100 µM throughout.
Consider `C(=C\c1ccccc1)/CN1CCN([C@@H](c2ccccc2)c2nnnn2-c2ccc3[nH]ccc3c2)CC1` (racemic) [Compound 20], for which the 50% inhibitory concentration (IC50) in assay [1] (100 μM or less list) is at most 100 µM; in assay [2] (100 nM or less list) it was at most 0.1 µM; in assay [2] (100 μM or less list), at most 100 µM. Further, the Ki in assay [3] and in assay [4] was at most 100 µM each time.
